Laboratory results as given in patent US5424456A, “N-arylalkylderivatives of 2-aminomethyl-2,3-dihydro-1,4-benzodioxine and the process of preparation thereof” (Vyzkumny Ustav Pro Farmacii A Biochemii s.p., priority 1991, dated 1995).

Experiments:
[1] = target: T1, calcium channel (Rattus norvegicus, UniProt P22002); assay: Calcium channel blocking activity, K+ depolarization-induced contraction of helically cut rat aortic strip; conditions: Krebs-Henselheit solution, 37° C., cumulative doses, read-out: IC50 (50% decrease of contraction of the aortic strip)
T1 construct: helically cut rat aortic strip; from tissue; host or cells: rat aorta (helically cut strip)
T1 sequence (P22002 whole entry): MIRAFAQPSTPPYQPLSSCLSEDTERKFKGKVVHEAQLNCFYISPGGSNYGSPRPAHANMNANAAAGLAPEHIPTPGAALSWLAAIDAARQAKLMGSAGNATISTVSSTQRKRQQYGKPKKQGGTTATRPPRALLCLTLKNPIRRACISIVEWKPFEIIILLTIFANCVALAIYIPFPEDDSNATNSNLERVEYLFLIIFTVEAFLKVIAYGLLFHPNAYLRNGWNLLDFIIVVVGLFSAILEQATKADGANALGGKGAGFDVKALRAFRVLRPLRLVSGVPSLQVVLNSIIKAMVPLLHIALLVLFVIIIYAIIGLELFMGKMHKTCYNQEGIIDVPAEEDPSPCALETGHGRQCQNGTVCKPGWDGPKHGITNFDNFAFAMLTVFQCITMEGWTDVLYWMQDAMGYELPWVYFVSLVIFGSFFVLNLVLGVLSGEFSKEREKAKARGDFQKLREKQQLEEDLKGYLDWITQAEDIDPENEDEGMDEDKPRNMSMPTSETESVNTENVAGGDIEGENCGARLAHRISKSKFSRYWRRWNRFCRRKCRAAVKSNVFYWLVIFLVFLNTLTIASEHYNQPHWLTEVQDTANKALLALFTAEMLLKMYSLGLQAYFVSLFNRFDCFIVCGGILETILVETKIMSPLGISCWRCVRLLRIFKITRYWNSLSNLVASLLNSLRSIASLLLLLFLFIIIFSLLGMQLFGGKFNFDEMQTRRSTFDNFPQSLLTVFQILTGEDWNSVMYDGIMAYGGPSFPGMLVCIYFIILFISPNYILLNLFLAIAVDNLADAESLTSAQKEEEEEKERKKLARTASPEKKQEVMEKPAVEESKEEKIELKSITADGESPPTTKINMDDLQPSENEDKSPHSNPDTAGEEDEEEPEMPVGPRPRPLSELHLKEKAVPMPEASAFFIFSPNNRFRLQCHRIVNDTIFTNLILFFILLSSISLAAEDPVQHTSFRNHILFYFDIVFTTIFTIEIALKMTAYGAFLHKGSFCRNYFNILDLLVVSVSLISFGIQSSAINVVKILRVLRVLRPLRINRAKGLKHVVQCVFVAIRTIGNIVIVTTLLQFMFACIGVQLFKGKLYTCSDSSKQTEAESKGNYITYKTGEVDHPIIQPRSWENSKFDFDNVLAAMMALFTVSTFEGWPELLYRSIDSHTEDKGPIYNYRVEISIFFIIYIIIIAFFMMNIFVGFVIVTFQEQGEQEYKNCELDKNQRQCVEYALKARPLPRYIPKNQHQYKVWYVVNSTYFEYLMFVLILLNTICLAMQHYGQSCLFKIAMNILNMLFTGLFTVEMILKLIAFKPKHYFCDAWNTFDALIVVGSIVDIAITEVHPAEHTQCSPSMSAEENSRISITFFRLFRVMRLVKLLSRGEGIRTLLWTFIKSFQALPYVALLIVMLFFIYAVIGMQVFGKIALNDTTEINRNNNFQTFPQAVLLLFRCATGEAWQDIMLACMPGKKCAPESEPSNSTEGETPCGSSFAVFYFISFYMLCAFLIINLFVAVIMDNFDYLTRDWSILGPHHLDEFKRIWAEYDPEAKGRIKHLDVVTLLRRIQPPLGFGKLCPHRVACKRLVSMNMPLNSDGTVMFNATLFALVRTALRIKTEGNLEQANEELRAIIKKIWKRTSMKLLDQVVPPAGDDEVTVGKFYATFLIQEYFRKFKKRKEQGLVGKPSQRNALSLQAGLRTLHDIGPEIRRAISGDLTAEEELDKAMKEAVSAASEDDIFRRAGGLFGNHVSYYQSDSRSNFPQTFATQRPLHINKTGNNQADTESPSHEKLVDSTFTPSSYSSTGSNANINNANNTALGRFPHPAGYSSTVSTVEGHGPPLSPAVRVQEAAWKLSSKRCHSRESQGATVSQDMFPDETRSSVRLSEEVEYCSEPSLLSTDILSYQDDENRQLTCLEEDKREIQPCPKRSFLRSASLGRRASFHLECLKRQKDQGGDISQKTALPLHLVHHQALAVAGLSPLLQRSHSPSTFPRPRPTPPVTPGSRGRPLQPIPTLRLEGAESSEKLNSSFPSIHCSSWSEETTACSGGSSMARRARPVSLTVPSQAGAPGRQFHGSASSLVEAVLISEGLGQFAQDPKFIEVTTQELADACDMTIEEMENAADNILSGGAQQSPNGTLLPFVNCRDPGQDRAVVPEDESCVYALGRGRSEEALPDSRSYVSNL
T1 sequence (P54290 25-1091 partner): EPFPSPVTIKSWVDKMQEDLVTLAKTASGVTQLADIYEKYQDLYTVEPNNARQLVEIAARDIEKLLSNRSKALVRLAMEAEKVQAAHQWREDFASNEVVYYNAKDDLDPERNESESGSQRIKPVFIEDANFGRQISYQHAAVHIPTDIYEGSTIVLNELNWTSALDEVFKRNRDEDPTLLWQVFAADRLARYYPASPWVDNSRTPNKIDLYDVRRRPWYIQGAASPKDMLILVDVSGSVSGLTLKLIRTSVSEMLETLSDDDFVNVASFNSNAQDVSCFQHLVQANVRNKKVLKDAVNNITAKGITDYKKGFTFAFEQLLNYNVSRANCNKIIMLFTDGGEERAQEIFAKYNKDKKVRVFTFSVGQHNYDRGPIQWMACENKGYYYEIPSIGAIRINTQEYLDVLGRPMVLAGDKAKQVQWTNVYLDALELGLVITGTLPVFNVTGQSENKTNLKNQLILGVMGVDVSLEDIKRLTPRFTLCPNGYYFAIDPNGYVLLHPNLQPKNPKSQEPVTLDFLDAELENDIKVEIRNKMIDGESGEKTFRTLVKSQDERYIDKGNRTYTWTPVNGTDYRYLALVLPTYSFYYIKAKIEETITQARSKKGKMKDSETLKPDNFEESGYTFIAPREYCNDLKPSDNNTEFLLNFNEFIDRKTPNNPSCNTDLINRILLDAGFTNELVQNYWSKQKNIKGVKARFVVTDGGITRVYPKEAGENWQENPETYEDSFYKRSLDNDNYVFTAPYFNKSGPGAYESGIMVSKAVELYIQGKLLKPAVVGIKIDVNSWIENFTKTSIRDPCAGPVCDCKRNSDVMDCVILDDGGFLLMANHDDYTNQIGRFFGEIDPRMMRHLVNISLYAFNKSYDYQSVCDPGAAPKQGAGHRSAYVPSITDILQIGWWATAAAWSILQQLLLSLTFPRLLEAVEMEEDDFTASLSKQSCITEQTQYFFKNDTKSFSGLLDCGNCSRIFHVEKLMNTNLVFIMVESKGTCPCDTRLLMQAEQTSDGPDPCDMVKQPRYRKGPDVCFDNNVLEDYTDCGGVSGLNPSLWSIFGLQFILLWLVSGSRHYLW
Description: The calcium channel blocking activity of the compounds was tested using a helically cut rat aortic strip in Krebs-Henselheit solution at 37° C., bubbled with a mixture of 95% O2 and 5% CO2. The isometrically registered contractions were induced by K^(+). depolarization. The test compounds were applied in a cumulative doses and the vasodilating activity thereof was expressed in calculated concentration of the test compound, causing 50% decrease of contraction of the aortic strip (IC50).

[2] = target: T2, α-adrenergic (Rattus norvegicus, UniProt P23944); assay: α-adrenergic blocking activity, norepinephrine-induced contraction of helically cut rat aortic strip; conditions: 37° C., cumulative doses, read-out: IC50 (concentration causing 50% relaxation)
T2 construct: helically cut rat aortic strip; from tissue; host or cells: rat aorta (helically cut strip)
T2 sequence (P23944 1-561): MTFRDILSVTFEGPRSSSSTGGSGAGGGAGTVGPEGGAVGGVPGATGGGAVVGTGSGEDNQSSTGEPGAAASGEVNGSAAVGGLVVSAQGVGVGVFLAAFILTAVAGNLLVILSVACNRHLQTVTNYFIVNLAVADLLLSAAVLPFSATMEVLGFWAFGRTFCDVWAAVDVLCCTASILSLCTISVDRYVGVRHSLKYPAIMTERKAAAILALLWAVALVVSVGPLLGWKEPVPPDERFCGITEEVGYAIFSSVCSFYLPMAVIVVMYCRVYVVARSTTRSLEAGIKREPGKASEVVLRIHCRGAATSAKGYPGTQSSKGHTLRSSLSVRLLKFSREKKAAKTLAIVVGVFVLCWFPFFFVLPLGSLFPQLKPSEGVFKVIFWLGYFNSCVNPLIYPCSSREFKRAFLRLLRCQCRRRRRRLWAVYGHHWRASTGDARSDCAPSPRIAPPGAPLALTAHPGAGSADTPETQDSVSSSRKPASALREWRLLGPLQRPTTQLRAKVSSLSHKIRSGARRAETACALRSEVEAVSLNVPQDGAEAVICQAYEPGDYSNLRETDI
Description: a) The α-adrenergic blocking activity of the compounds was tested using a helically cut rat aortic strip in a Krebs-Henselheit solution at 37° C., bubbled with a mixture of 95% O2 and 5% CO2. Norepinephrine induced contractions were detected isometrically. The compounds were added in cumulative doses and the relaxing activity was expressed in per cents of the maximum norepinephrine contraction.

[3] = tested on: α-adrenergic; assay: α-adrenergic blocking activity, postdecapitation muscular contractions in rats; type: in vivo, rat; conditions: i.v., 4.6 mg/kg, 30 minutes prior to decapitation
Description: b) The α-adrenergic blocking activity of compounds VUFB 17951 and VUFB 17959 was also shown in the test of influencing the postdecapitation muscular contractions in rats. The test compounds were administered intravenously in the dose of 4.6 mg/kg for VUFB 17951 and […] for VUFB 17959.

[4] = tested on: blood pressure; assay: Hypotensive activity, pentobarbital anaesthesized rabbits; type: in vivo, rabbit
Description: a) The blood pressure of pentobarbital anaesthesized rabbits was registered invasively in arteria femoralis. The average decrease in systolic (SBP) and diastolic (DBP) blood pressure expressed in per cents of the starting blood pressure level after intravenous and oral administration is shown in Tables 3 and 4.

[5] = tested on: blood pressure; assay: Hypotensive activity, conscious monkeys; type: in vivo, Macaca mulatta
Description: c) The blood pressure of conscious monkeys (Macaca mulatta) was measured non-invasively on the arm. The average decrease in systolic (SBP) and diastolic (DBP) blood pressure after intravenous and oral administration was expressed in per cents of the starting blood pressure.

[6] = tested on: intraocular pressure; assay: Effect on the intraocular pressure; type: in vivo, rabbit; conditions: rabbits, topical intraocular administration
[7] = p.o., 5.0 mg/kg, value 1 of 5 (heads 30/60/120/180 min)
[8] = p.o., 5.0 mg/kg, value 2 of 5 (heads 30/60/120/180 min)
[9] = p.o., 5.0 mg/kg, value 3 of 5 (heads 30/60/120/180 min)
[10] = p.o., 5.0 mg/kg, value 4 of 5 (heads 30/60/120/180 min)
[11] = p.o., 5.0 mg/kg, value 5 of 5 (heads 30/60/120/180 min)
[12] = p.o., 10.0 mg/kg, value 1 of 5 (heads 30/60/120/180 min)
[13] = p.o., 10.0 mg/kg, value 2 of 5 (heads 30/60/120/180 min)
[14] = p.o., 10.0 mg/kg, value 3 of 5 (heads 30/60/120/180 min)
[15] = p.o., 10.0 mg/kg, value 4 of 5 (heads 30/60/120/180 min)
[16] = p.o., 10.0 mg/kg, value 5 of 5 (heads 30/60/120/180 min)

COc1ccc(C(C#N)(CCCNCC2COc3ccccc3O2)C(C)C)cc1OC (racemic) [VUFB 17951, 5-(2,3-Dihydro-1,4-benzodioxin-2-ylmethylamino)-2-(3,4-dimethoxyphenyl)-2-isopropyl valeronitrile]
IC50 [1]: 18 µM | IC50 [2]: 6 µM | decrease in number of postdecapitation contractions [3]: highly significant decrease in number of postdecapitation contractions | decrease in diastolic blood pressure (DBP) ([4]; i.v., 0.2 mg/kg, 1 min): -36 per cents | decrease in systolic blood pressure (SBP) ([4]; i.v., 0.2 mg/kg, 1 min): -28 per cents | decrease in diastolic blood pressure (DBP) ([4]; i.v., 0.2 mg/kg, 5 min): -23 per cents | decrease in systolic blood pressure (SBP) ([4]; i.v., 0.2 mg/kg, 5 min): -24 per cents | decrease in diastolic blood pressure (DBP) ([4]; i.v., 0.2 mg/kg, 30 min): -24 per cents | decrease in systolic blood pressure (SBP) ([4]; i.v., 0.2 mg/kg, 30 min): -25 per cents | decrease in diastolic blood pressure (DBP) ([4]; i.v., 0.2 mg/kg, 60 min): -16 per cents | decrease in systolic blood pressure (SBP) ([4]; i.v., 0.2 mg/kg, 60 min): -18 per cents | decrease in diastolic blood pressure (DBP) ([4]; i.v., 0.2 mg/kg, 180 min): -17 per cents | decrease in systolic blood pressure (SBP) ([4]; i.v., 0.2 mg/kg, 180 min): -13 per cents | decrease in diastolic blood pressure (DBP) ([4]; i.v., 1.0 mg/kg, 1 min): -56 per cents | decrease in systolic blood pressure (SBP) ([4]; i.v., 1.0 mg/kg, 1 min): -47 per cents | decrease in diastolic blood pressure (DBP) ([4]; i.v., 1.0 mg/kg, 5 min): -36 per cents | decrease in systolic blood pressure (SBP) ([4]; i.v., 1.0 mg/kg, 5 min): -39 per cents | decrease in diastolic blood pressure (DBP) ([4]; i.v., 1.0 mg/kg, 30 min): -30 per cents | decrease in systolic blood pressure (SBP) ([4]; i.v., 1.0 mg/kg, 30 min): -35 per cents | decrease in diastolic blood pressure (DBP) ([4]; i.v., 1.0 mg/kg, 60 min): -33 per cents | decrease in systolic blood pressure (SBP) ([4]; i.v., 1.0 mg/kg, 60 min): -35 per cents | decrease in diastolic blood pressure (DBP) ([4]; i.v., 1.0 mg/kg, 180 min): -24 per cents | decrease in systolic blood pressure (SBP) ([4]; i.v., 1.0 mg/kg, 180 min): -17 per cents | decrease in diastolic blood pressure (DBP) [4, 7]: -6 per cents | decrease in systolic blood pressure (SBP) [4, 7]: -6 per cents | decrease in diastolic blood pressure (DBP) [4, 8]: -12 per cents | decrease in systolic blood pressure (SBP) [4, 8]: -14 per cents | decrease in diastolic blood pressure (DBP) [4, 9]: -18 per cents | decrease in systolic blood pressure (SBP) [4, 9]: -17 per cents | decrease in diastolic blood pressure (DBP) [4, 10]: -18 per cents | decrease in systolic blood pressure (SBP) [4, 10]: -13 per cents | decrease in diastolic blood pressure (DBP) [4, 11]: -18 per cents | decrease in systolic blood pressure (SBP) [4, 11]: -15 per cents | decrease in diastolic blood pressure (DBP) [4, 12]: -6 per cents | decrease in systolic blood pressure (SBP) [4, 12]: -5 per cents | decrease in diastolic blood pressure (DBP) [4, 13]: -11 per cents | decrease in systolic blood pressure (SBP) [4, 13]: -9 per cents | decrease in diastolic blood pressure (DBP) [4, 14]: -18 per cents | decrease in systolic blood pressure (SBP) [4, 14]: -12 per cents | decrease in diastolic blood pressure (DBP) [4, 15]: -20 per cents | decrease in systolic blood pressure (SBP) [4, 15]: -13 per cents | decrease in diastolic blood pressure (DBP) [4, 16]: -17 per cents | decrease in systolic blood pressure (SBP) [4, 16]: -12 per cents | decrease in diastolic blood pressure (DBP) ([5]; i.v., 0.25 mg/kg, 1 min): -49 per cents | decrease in systolic blood pressure (SBP) ([5]; i.v., 0.25 mg/kg, 1 min): -37 per cents | decrease in diastolic blood pressure (DBP) ([5]; i.v., 0.25 mg/kg, 5 min): -50 per cents | decrease in systolic blood pressure (SBP) ([5]; i.v., 0.25 mg/kg, 5 min): -45 per cents | decrease in diastolic blood pressure (DBP) ([5]; i.v., 0.25 mg/kg, 30 min): -31 per cents | decrease in systolic blood pressure (SBP) ([5]; i.v., 0.25 mg/kg, 30 min): -28 per cents | decrease in diastolic blood pressure (DBP) ([5]; i.v., 0.25 mg/kg, 60 min): -17 per cents | decrease in systolic blood pressure (SBP) ([5]; i.v., 0.25 mg/kg, 60 min): -11 per cents | decrease in diastolic blood pressure (DBP) ([5]; i.v., 0.25 mg/kg, 180 min): -18 per cents | decrease in systolic blood pressure (SBP) ([5]; i.v., 0.25 mg/kg, 180 min): -8 per cents | decrease in diastolic blood pressure (DBP) ([5]; i.v., 1.0 mg/kg, 1 min): -58 per cents | decrease in systolic blood pressure (SBP) ([5]; i.v., 1.0 mg/kg, 1 min): -50 per cents | decrease in diastolic blood pressure (DBP) ([5]; i.v., 1.0 mg/kg, 5 min): -60 per cents | decrease in systolic blood pressure (SBP) ([5]; i.v., 1.0 mg/kg, 5 min): -53 per cents | decrease in diastolic blood pressure (DBP) ([5]; i.v., 1.0 mg/kg, 30 min): -46 per cents | decrease in systolic blood pressure (SBP) ([5]; i.v., 1.0 mg/kg, 30 min): -39 per cents | decrease in diastolic blood pressure (DBP) ([5]; i.v., 1.0 mg/kg, 60 min): -30 per cents | decrease in systolic blood pressure (SBP) ([5]; i.v., 1.0 mg/kg, 60 min): -29 per cents | decrease in diastolic blood pressure (DBP) ([5]; i.v., 1.0 mg/kg, 180 min): -23 per cents | decrease in systolic blood pressure (SBP) ([5]; i.v., 1.0 mg/kg, 180 min): -19 per cents | decrease in diastolic blood pressure (DBP) ([5]; p.o., 10.0 mg/kg, 5-6 hours): -29 per cents | decrease in systolic blood pressure (SBP) ([5]; p.o., 10.0 mg/kg, 5-6 hours): -23 per cents | decrease in diastolic blood pressure (DBP) ([5]; p.o., 10.0 mg/kg, 0.5 hours): -30 per cents | decrease in systolic blood pressure (SBP) ([5]; p.o., 10.0 mg/kg, 0.5 hours): -26 per cents | decrease in diastolic blood pressure (DBP) ([5]; p.o., 10.0 mg/kg, 1 hours): -27 per cents | decrease in systolic blood pressure (SBP) ([5]; p.o., 10.0 mg/kg, 1 hours): -24 per cents | decrease in diastolic blood pressure (DBP) ([5]; p.o., 10.0 mg/kg, 3 hours): -26 per cents | decrease in systolic blood pressure (SBP) ([5]; p.o., 10.0 mg/kg, 3 hours): -21 per cents | decrease in diastolic blood pressure (DBP) ([5]; p.o., 10.0 mg/kg, 24 hours): -11 per cents | decrease in systolic blood pressure (SBP) ([5]; p.o., 10.0 mg/kg, 24 hours): -9 per cents | lowering of the intraocular pressure [6]: lowered significantly the intraocular pressure
